Our source for the GI50 and TGI values is PubChem BioAssay (NCI).

What all share (assay): inhibition of tumour cell growth, NCI panel, 48 h
Experiment [1] deals with HOP-62 NSCLC.
For experiment [2], the system named is TK-10 renal.
Experiment [3] relates to BT-549 breast.
Experiment [4] has as its system OVCAR-4 ovarian.
Experiment [5] has as its system LOX IMVI melanoma.
Experiment [6] deals with OVCAR-5 ovarian.
For experiment [7], the system named is SF-295 CNS.
Experiment [8] deals with SF-268 CNS.
The subject of experiment [9] is SK-MEL-5 melanoma.
Experiment [10] concerns KM12 colon.

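Cells were grown in 96-well plates and exposed to each compound for 48 hours at five concentrations; endpoints were interpolated linearly between bracketing concentrations, or set to the highest concentration if not reached. GI50: concentration for 50% inhibition of growth. Definition used: TGI = concentration required for complete inhibition of growth.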

Take `COc1ccc(/C=C(\C#N)n2nnc3c(F)cccc32)cc1`: the GI50 in experiment [1] was 0.621 µM; in experiment [2] it was 2.73 µM; in [3], 0.433 µM; in experiment [4], above 28.2 µM; in [5], 0.493 µM; in experiment [6] it was 0.84 µM. Also, the GI50 in [7] was 0.275 µM; in experiment [8], 1.68 µM; in experiment [9], 0.47 µM; in experiment [10] it was 0.39 µM. Moreover, the TGI in [1] is above 83.1 µM; in experiment [2], 29 µM; in experiment [3] it was above 34.6 µM; in [4], above 100 µM; in experiment [5], 16.6 µM; in experiment [6], 14 µM. For the same compound, the TGI is 2.72 µM in [7], above 100 µM in experiment [8], above 33.7 µM in experiment [9] and above 100 µM in experiment [10].

Turning to `CCCCCCCCCCCCC(Br)C(=O)NCC(N)=O` (stereo unspecified), the TGI in [1] came to 29.3 µM; in [2], 34.7 µM; in [4], 12.6 µM; in [5], 42.1 µM; in [6] it was 57.3 µM; in experiment [7] it was 29.5 µM. The TGI in experiment [8] was 17.8 µM; in [9] it was 18.4 µM; in experiment [10], 28.8 µM.

Turning to `COc1ncnc(NS(=O)(=O)c2ccc(N=C3C(=O)N(CN4CCN(c5c(F)cc6c(=O)c(C(=O)O)cn(C7CC7)c6c5OC)CC4C)c4ccc(Br)cc43)cc2)c1OC` (stereo unspecified), the GI50 in [2] is 2.47 µM; in [3] it was 6.57 µM; in experiment [4], above 50 µM; in [5], 1.22 µM; in [6], 5 µM; in experiment [7], 20.8 µM. Also, the GI50 in experiment [8] was 5.58 µM; in [9], 5.52 µM; in experiment [10], 4.02 µM. The TGI is above 50 µM in [2]; 19.9 µM in experiment [3]; above 50 µM in experiment [4]; 31.4 µM in [5]; above 50 µM in experiment [6]; above 50 µM in experiment [7]. In addition, the TGI in experiment [8] was above 50 µM; in [9], 14.5 µM; in experiment [10], 15.9 µM.

`O=C(CCCCCCN1CC(=O)N2[C@@H](c3ccc(Cl)c(Cl)c3)c3[nH]c4ccccc4c3C[C@H]2C1=O)NO`: the GI50 in [1] is 3.88 µM; in experiment [2], 3.51 µM; in [3] it was 4.41 µM; in experiment [4] it was 4.71 µM; in [6], 3.86 µM; in experiment [7], 3.66 µM. Moreover, the GI50 is 4.66 µM in experiment [8], 4.73 µM in experiment [9] and 3.8 µM in [10]. For the same compound, the TGI in experiment [1] came out at 9.35 µM; in experiment [2], 10.2 µM; in experiment [3], 14.2 µM; in experiment [4], 23.8 µM; in experiment [6] it was 13.4 µM; in experiment [7], 8 µM. For the same compound, the TGI in experiment [8] was 10.5 µM; in experiment [9], 9.29 µM; in experiment [10], 9.29 µM.

Turning to `COC1C(O)C(CO)OC(OC2C(O)COC(OC3C(C)OC(OC4C(O[C@H]5CC[C@@]6(C)C(CC=C7[C@H]6CCC68C(=O)O[C@@](C)(CCCC(C)C)[C@H]6[C@@H](OC(C)=O)C[C@@]78C)C5(C)C)OCC(OS(=O)(=O)O)C4O)C(OC4OCC(O)C(O)C4O)C3O)C2O)C1O` (stereo partly specified), the GI50 in experiment [2] was 0.333 µM; in experiment [3] it was 0.226 µM; in experiment [4], 0.147 µM; in experiment [5] it was 0.164 µM; in [6], 0.241 µM; in experiment [7], 0.158 µM. Further, the GI50 was 0.199 µM in experiment [8], 0.473 µM in [9] and 0.0746 µM in [10]. Moreover, the TGI is 0.855 µM in experiment [2]; 0.523 µM in [3]; 0.433 µM in experiment [4]; 0.357 µM in experiment [5]; 0.564 µM in [6]; 0.389 µM in experiment [7]. In addition, the values for the TGI in experiment [8], in experiment [9] and in [10] were 0.685 µM, 1.13 µM and 0.193 µM, respectively.

`CC1(C)CC(=O)C2=C(C1)OC(N)=C(c1nc(-c3ccccc3)cs1)C2c1ccc(Br)cc1` (stereo unspecified): the GI50 is 54.4 µg/mL in experiment [1]; 76.9 µg/mL in experiment [2]; 20.9 µg/mL in [4]; 124 µg/mL in [5]; above 150 µg/mL in experiment [6]; 142 µg/mL in [7]. For the same compound, the GI50 in experiment [8] is 121 µg/mL; in experiment [9] it was 38.7 µg/mL; in experiment [10], 87.6 µg/mL. For the same compound, the TGI in experiment [1] was above 150 µg/mL; in [2], above 150 µg/mL; in experiment [4], 121 µg/mL; in experiment [5] it was above 150 µg/mL; in experiment [6] it was above 150 µg/mL; in experiment [7], above 150 µg/mL. Besides, the TGI in [8], in experiment [9] and in experiment [10] was above 150 µg/mL in each case.

For `COc1ccc(CCC2c3cc(OC)c(OC)cc3CCN2C)cc1OC` (stereo unspecified), the TGI in experiment [1], in experiment [2], in [4], in [5], in experiment [6] and in [7] was above 100 µM throughout. The TGI in experiment [8], in experiment [9] and in experiment [10] was above 100 µM in each case.

Regarding `N#CCCN1C/C(=C/c2ccc(Cl)cc2)C(=O)/C(=C/c2ccc(Cl)cc2)C1`, the GI50 was 0.516 µM in experiment [1]; 2.08 µM in experiment [2]; 1.24 µM in [3]; 3.01 µM in experiment [4]; 0.303 µM in experiment [5]; 2.07 µM in experiment [6]. In addition, the figures for the GI50 in [8], in experiment [9] and in experiment [10] were 1.51 µM, 1.59 µM and 0.275 µM, respectively. In addition, the TGI stood at 2.94 µM in experiment [1]; 4.86 µM in [2]; 2.65 µM in experiment [3]; 15.7 µM in experiment [4]; 1.13 µM in experiment [5]; 4.7 µM in experiment [6]. For the same compound, the TGI in experiment [8] is 3.09 µM; in experiment [9], 2.98 µM; in [10], 0.841 µM.

Take `O=C1Nc2ccccc2N=CC1NC(=O)C(c1ccccc1)c1ccccc1` (stereo unspecified): the TGI in [1], in experiment [2], in experiment [4], in experiment [5], in [6] and in [7] was above 100 µM each time. For the same compound, the TGI in [8], in [9] and in experiment [10] was above 100 µM throughout.

`N#CC(C#N)c1ccc(C(=O)N2CCC[C@H]2CO)cc1`: the TGI in [1], in experiment [2], in [4], in experiment [5], in [6] and in [7] was above 100 µM throughout. Besides, the TGI in [8], in [9] and in experiment [10] was above 100 µM throughout.

Regarding `Nc1c([N+](=O)[O-])nc(Cl)c2nncn12`, the TGI in experiment [1] is above 100 µM; in [2], above 100 µM; in experiment [4], above 100 µM; in experiment [5], above 61.1 µM; in experiment [6] it was above 100 µM; in [7] it was above 100 µM. Further, the TGI in [8], in experiment [9] and in experiment [10] was above 100 µM throughout.

For the compound `NC(=O)NNC(=O)NC12CC3CC(CC(C3)C1)C2`, the TGI in [1], in experiment [2], in experiment [4], in experiment [5], in experiment [6] and in experiment [7] was above 100 µM throughout. In addition, the TGI in experiment [8], in experiment [9] and in experiment [10] was above 100 µM each time.

Regarding `C#CCNC(=O)[C@H](CC)[C@H]1CC[C@H](C)[C@H]([C@@H](C)[C@H](O)[C@H](C)C(=O)[C@H](CC)C2O[C@]3(C=CC(=O)[C@]4(CC[C@@](C)([C@H]5CC[C@](O)(CC)[C@H](C)O5)O4)O3)[C@H](C)C[C@@H]2C)O1` (stereo partly specified), the GI50 in experiment [1] is 1.99 µM; in [2], 2.35 µM; in experiment [3], 1.83 µM; in experiment [4], 2.91 µM; in experiment [5] it was 2.06 µM; in experiment [6], 2.62 µM. Further, the GI50 in [7] was 1.57 µM; in [8], 2.08 µM; in [9], 1.69 µM. Further, the TGI is 4.91 µM in [1]; 7.74 µM in [2]; 3.93 µM in experiment [3]; above 100 µM in experiment [4]; 4.83 µM in experiment [5]; 8.16 µM in experiment [6]. The figures for the TGI in experiment [7], in [8] and in experiment [9] were 3.56 µM, 6.37 µM and 3.11 µM, respectively.

For `O=C(CC1SC(=Nc2ccccc2Cl)NC1=O)Nc1ccc(Cl)cc1Cl` (stereo unspecified), the TGI in experiment [1], in [2], in [4], in [5], in [6] and in experiment [7] was above 100 µM each time. Besides, the TGI in experiment [8], in [9] and in [10] was above 100 µM in each case.

Regarding `O=C1c2sccc2-c2cccc3cccc1c23` (tested in a mixture with another compound), the TGI was above 100 µM in experiment [1]; 22.6 µM in experiment [2]; 25.7 µM in [3]; 33.9 µM in [4]; 18.2 µM in experiment [5]; 25.5 µM in [6]. Further, the TGI in experiment [7] was 45 µM; in experiment [8], above 100 µM; in experiment [10], 28.6 µM.

`COc1ccc(/C=C2\CCC(C)(CN(C)C)C2=O)cc1OC` (stereo unspecified): the TGI in experiment [1], in experiment [2], in [4], in experiment [5], in [6] and in [7] was above 100 µM each time. In addition, the TGI in [8], in experiment [9] and in experiment [10] was above 100 µM each time.

Turning to `CC(C)=CC(=O)N(C)C1C2CN3CCC(O2)C13` (stereo unspecified), the TGI in [1], in experiment [2], in experiment [4], in experiment [5], in experiment [6] and in experiment [7] was above 100 µM throughout. In addition, the TGI in [8], in experiment [9] and in experiment [10] was above 100 µM each time.

Consider `N#CCN1CCn2c1nsc2=S`, for which the GI50 in [1], in experiment [2], in experiment [3], in experiment [4], in experiment [5] and in experiment [7] was above 100 µM throughout. Besides, the GI50 in experiment [8] was above 100 µM; in experiment [9], above 100 µM; in experiment [10], 88.9 µM. The TGI in experiment [1], in experiment [2], in experiment [3], in [4], in experiment [5] and in experiment [7] was above 100 µM throughout. Further, the TGI in [8], in experiment [9] and in [10] was above 100 µM each time.

Regarding `O=C(Nc1cccc(-n2cc(-c3ccncc3)c(-c3cc(O)cc(Cl)c3)n2)c1)c1cc(C(F)(F)F)cc(C(F)(F)F)c1`, the GI50 in experiment [1] is 9.82 µM; in [3], 4.65 µM; in experiment [4], 8.53 µM; in experiment [5] it was 3.29 µM; in [6], 8.23 µM; in experiment [7], 2.37 µM. Also, the GI50 in [8] was 6.38 µM; in [9], 2.61 µM. Also, the TGI in experiment [1] was above 100 µM; in experiment [3], 46.6 µM; in [4] it was above 100 µM; in experiment [5], 13.7 µM; in [6], 38.4 µM; in [7], 7.15 µM. The TGI is above 100 µM in [8] and 8.67 µM in [9].

Take `O=c1[nH]cc(F)c(=O)n1C1OC(CO)C(O)C1O` (stereo unspecified): the TGI in experiment [1], in experiment [2], in experiment [4], in [5], in experiment [6] and in experiment [7] was above 100 µM each time. Moreover, the TGI in experiment [8], in [9] and in [10] was above 100 µM throughout.
